The text below walks through data of PubChem BioAssay (NCI).

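1) Cells in 96-well plates. 2) Compound, 48 h, 5 concentrations. 3) Linear interpolation between surrounding doses. 4) Unreached endpoint = highest concentration. GI50 = concentration required for 50% inhibition of growth. TGI denotes the concentration required for complete inhibition of growth.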

In the first assay the test system is OVCAR-4 ovarian. As to the kind of experiment: inhibition of tumour cell growth, NCI panel, 48 h.
For `O=C1c2cccc(NCCN=Cc3cc(O)ccc3O)c2C(=O)c2c(NCCN=Cc3cc(O)ccc3O)cccc21`, the GI50 is 573 nM and the TGI amounted to 2.64 µM.
`COc1ccc(CNc2cc(OC)c(OC)c(OC)c2)cc1`: the TGI was determined as 85.1 µM.
The same measure, in the same setting: under `O=C1NNC=Nc2ccc(cc2)S(=O)(=O)c2ccc(cc2)N=CNNC1=O` stands > 100 µM.
For the compound `COc1cc2c3c(n(C)c(=O)c2cc1OC)-c1cc2c(cc1/C3=C\CCCN1C(=O)c3ccccc3C1=O)OCO2`, the GI50 is > 40000 nM and the TGI was > 40 µM.
Consider `CCCCCCCCCCCC(=O)CC(=O)c1c(O)cccc1O`, for which the TGI stood at 34.1 µM.
For the compound `CN(C(=O)C12C3C4C1C1C2C3C41C(=O)C(C)(C)C)C(C)(C)C` (stereo not drawn), the TGI was > 100 µM.
`Cn1cc(-c2cnc3ccc(NC(=O)Nc4ccc(F)c(Br)c4)cc3n2)cn1`: the GI50 is 1530 nM and the TGI amounted to 5.55 µM.
For `COc1cc(/C=C/c2cc(/C=C/c3ccc(O)c(OC)c3)n(-c3ccccc3)n2)ccc1O`, in that order: 536 nM and 4.95 µM.
The compound `O=C1CNCCCN2CCN(CCCNCC(=O)Nc3ccc(cc3)S(=O)(=O)c3ccc(cc3)NC(=O)CNCCCN3CCN(CCCNCC(=O)Nc4ccc(cc4)S(=O)(=O)c4ccc(cc4)N1)CC3)CC2` registered a TGI of 97.7 µM.
For the compound `Cc1ccc(-c2c3c([nH]c(=O)c2C#N)-c2cc(F)ccc2OC3)cc1`, the GI50 was > 100000 nM and the TGI was > 100 µM.

The subject of the next assay is PC-3 prostate. The experiment in a line: inhibition of tumour cell growth, NCI panel, 48 h.
For the compound `CCc1c(Oc2ccc(C(C)=O)cc2)c2ccccc2[nH]c1=O`, the GI50 was 970 nM and the TGI is > 40.8 µM.
Consider `Cc1nn(CN2CCN(C)CC2)c(=S)n1/N=C/c1cccc2ccccc12`, for which the GI50 is 22100 nM and the TGI was 64 µM.
Regarding `Cc1ccc(CS/C(=C\c2ccc([N+](=O)[O-])cc2)C(=O)c2ccc(F)cc2)cc1`, the GI50 was 2360 nM and the TGI stood at 6.2 µM.
For `CN1CCN(Cc2ccc(NC(=O)c3cncc(C#Cc4cnc(N)c5ccc(C#N)cc45)c3)cc2C(F)(F)F)CC1`, in that order: 357 nM and 1.37 µM.
Turning to `O=C(O)Cn1ccc(=O)c2ccc([N+](=O)[O-])cc21`, the TGI was > 100 µM.
With `C=C(CN1CCc2ccccc2C1)c1ccc(C(=O)Nc2cnccn2)cc1`, the GI50 is 1860 nM and the TGI was > 100 µM.
The matching figures for `O=C1c2cccc(NCCN=Cc3cc(O)ccc3O)c2C(=O)c2c(NCCN=Cc3cc(O)ccc3O)cccc21`: 1170 nM and 3.97 µM.
For `CSc1cc(N=Nc2nc3ccccc3s2)c2ccccc2c1O`, in that order: 13400 nM and > 50 µM.
Turning to `O=C1NNC=Nc2ccc(cc2)S(=O)(=O)c2ccc(cc2)N=CNNC1=O`, the TGI is > 100 µM.
Consider `COc1cc2c3c(n(C)c(=O)c2cc1OC)-c1cc2c(cc1/C3=C\CCCN1C(=O)c3ccccc3C1=O)OCO2`, for which the GI50 is 4790 nM and the TGI was determined as 24.7 µM.
For the compound `Cn1cc(-c2cnc3ccc(NC(=O)Nc4ccc(F)c(Br)c4)cc3n2)cn1`, the GI50 was 1440 nM and the TGI turned out to be 3.62 µM.
As for `COc1cc(/C=C/c2cc(/C=C/c3ccc(O)c(OC)c3)n(-c3ccccc3)n2)ccc1O`, the GI50 was 332 nM and the TGI turned out to be 12.7 µM.
`O=C1CNCCCN2CCN(CCCNCC(=O)Nc3ccc(cc3)S(=O)(=O)c3ccc(cc3)NC(=O)CNCCCN3CCN(CCCNCC(=O)Nc4ccc(cc4)S(=O)(=O)c4ccc(cc4)N1)CC3)CC2`: the TGI is > 100 µM.
As for `Cc1ccc(-c2c3c([nH]c(=O)c2C#N)-c2cc(F)ccc2OC3)cc1`, the GI50 was 88700 nM and the TGI was > 100 µM.

Another assay has as its system SNB-19 CNS. The experiment in a line: inhibition of tumour cell growth, NCI panel, 48 h.
As to `CCc1c(Oc2ccc(C(C)=O)cc2)c2ccccc2[nH]c1=O`, the GI50 was 30.7 µM and the TGI was > 100 µM.
For the compound `Cc1nn(CN2CCN(C)CC2)c(=S)n1/N=C/c1cccc2ccccc12`, the GI50 was 20.3 µM and the TGI was found to be 51.6 µM.
`Cc1ccc(CS/C(=C\c2ccc([N+](=O)[O-])cc2)C(=O)c2ccc(F)cc2)cc1`: the GI50 is 1.98 µM and the TGI worked out at 4.36 µM.
On to `CC(=O)Nc1ccccc1Sc1ccccc1`, for which the TGI was > 100 µM.
Same read-out and setting: under `COC(=O)C[C@H]1CCC2(OCCO2)[C@]1(C)C(=O)OC` stands > 100 µM; under `O=C(O)Cn1ccc(=O)c2ccc([N+](=O)[O-])cc21`, > 100 µM; under `CCCCCCCCCC[C@@H](O)[C@@H]1CC[C@H]([C@H]2CC[C@@H]([C@@H](O)CCCCCCCCCC[C@H]3CC(CC(C)=O)C(=O)O3)O2)O1` (stereo partly drawn), 31.3 µM.
As for `C=C(CN1CCc2ccccc2C1)c1ccc(C(=O)Nc2cnccn2)cc1`, the GI50 is 51.1 µM and the TGI was > 100 µM.
Consider `CCOc1ccc2c(c1)[n+]([O-])c(S(=O)(=O)c1ccc(C)cc1)c(N)[n+]2[O-]`, for which the TGI is > 100 µM.
Turning to `O=C1c2cccc(NCCN=Cc3cc(O)ccc3O)c2C(=O)c2c(NCCN=Cc3cc(O)ccc3O)cccc21`, the GI50 was 1.55 µM and the TGI came to 5.1 µM.
On to `COc1ccc(CNc2cc(OC)c(OC)c(OC)c2)cc1`, for which the TGI is > 100 µM.
As for `CSc1cc(N=Nc2nc3ccccc3s2)c2ccccc2c1O`, the GI50 was 9.59 µM and the TGI was 25.7 µM.
Take `O=C1NNC=Nc2ccc(cc2)S(=O)(=O)c2ccc(cc2)N=CNNC1=O`: the TGI is > 100 µM.
Take `COc1cc2c3c(n(C)c(=O)c2cc1OC)-c1cc2c(cc1/C3=C\CCCN1C(=O)c3ccccc3C1=O)OCO2`: the GI50 is > 40 µM and the TGI was > 40 µM.
In turn, `CCCCCCCCCCCC(=O)CC(=O)c1c(O)cccc1O` had a TGI of 36.8 µM.
Take `CN(C(=O)C12C3C4C1C1C2C3C41C(=O)C(C)(C)C)C(C)(C)C` (stereo not drawn): the TGI was > 100 µM.
For the compound `Cn1cc(-c2cnc3ccc(NC(=O)Nc4ccc(F)c(Br)c4)cc3n2)cn1`, the GI50 was 2.66 µM and the TGI was found to be 10.4 µM.
Take `O=C1CNCCCN2CCN(CCCNCC(=O)Nc3ccc(cc3)S(=O)(=O)c3ccc(cc3)NC(=O)CNCCCN3CCN(CCCNCC(=O)Nc4ccc(cc4)S(=O)(=O)c4ccc(cc4)N1)CC3)CC2`: the TGI was > 100 µM.
For the compound `Cc1ccc(-c2c3c([nH]c(=O)c2C#N)-c2cc(F)ccc2OC3)cc1`, the GI50 was 70.4 µM and the TGI is > 100 µM.
